The values that follow come from patent US20080286340A1, “Buffered nicotine containing products” (priority 2007, published 2008).

For series [1] the following is noted: pKa falling in interval 8-9.6; cited from earlier work.
For series [2] the following is noted: cited from earlier work.
For series [3] the following is noted: smoking a cigarette; cited from earlier work.
For series [4] the following is noted: at 37° C.; cited from earlier work.

Like-named read-outs stand apart in the source and are kept apart here.

Turning to `NC(=O)C[C@H](N)C(=O)O` [Aspargine], the “pKa value (in interval 8-9.6)” value in series [1] is on record as 8.73.

For `N[C@@H](CS(=O)(=O)O)C(=O)O` [Cysteic acid], the Solubility in water entry in series [2] (water) is recorded as “Very soluble”.

Regarding `N[C@@H](CCC(=O)O)C(=O)O` [Glutamic acid], the “pKa value (in interval 8-9.6)” value in series [1] is 9.58.

Turning to `NC(=O)CC[C@H](N)C(=O)O` [Glutamine], in series [2] (water), the Solubility in water was 42 g/kg.

Regarding `N[C@@H](Cc1c[nH]cn1)C(=O)O` [Histidine], the Solubility in water in series [2] is recorded as 43.5 g/kg.

Turning to `CC[C@H](C)[C@H](N)C(=O)O` [Isoleucine], in series [2] (water), the Solubility in water is 34.2 g/kg.

For the compound `CC(C)C[C@H](N)C(=O)O` [Leucine], the Solubility in water in series [2] (water) is listed as 22.0 g/kg.

For the compound `NCCCC[C@H](N)C(=O)O` [Lysine], in series [1], the “pKa value (in interval 8-9.6)” value is 9.16. The Solubility in water entry in series [2] was “Very soluble^a)b)”.

Consider `CSCC[C@H](N)C(=O)O` [Methionine], for which the Solubility in water in series [2] is reported as 56 g/kg.

As to `N[C@@H](Cc1ccccc1)C(=O)O` [Phenylalanine], in series [1], the “pKa value (in interval 8-9.6)” value is recorded as 9.09. Further, in series [2] (water), the Solubility in water was 27.9 g/kg.

Take `CC(C)[C@H](N)C(=O)O` [Valine]: the Solubility in water in series [2] (water) is reported as 88.5 g/kg.

Turning to `CN1CCCC1c1cccnc1` (centres unmarked) [nicotine, 3-(1-methyl-2-pyrrolidinyl)pyridine], the “nicotine in the non-charged base form” value (assuming a pH of the saliva of 6.8) was “about 10%”. Besides, for the setting “at a pH of 9.0”, the “nicotine in the free readily absorbable base form” value was “more than 90%”. Further, in series [3], the “time until nicotine reaches the brain after inhalation” value is reported as “around ten”. Further, the “pKa (acid-base equilibrium of nicotine)” value in series [4] is given as about 7.8.
